{"source": "patent US5981521A", "about": "“Tetrahydroisoquinoline derivatives as LHRH antagonists” (Abbott Laboratories, priority 1998, dated 1999)", "target": "T1, LHRH rat pituitary receptor (Rattus norvegicus, UniProt P30969)", "T1 construct": "from tissue; host or cells: rat pituitary", "T1 sequence (P30969 1-327)": "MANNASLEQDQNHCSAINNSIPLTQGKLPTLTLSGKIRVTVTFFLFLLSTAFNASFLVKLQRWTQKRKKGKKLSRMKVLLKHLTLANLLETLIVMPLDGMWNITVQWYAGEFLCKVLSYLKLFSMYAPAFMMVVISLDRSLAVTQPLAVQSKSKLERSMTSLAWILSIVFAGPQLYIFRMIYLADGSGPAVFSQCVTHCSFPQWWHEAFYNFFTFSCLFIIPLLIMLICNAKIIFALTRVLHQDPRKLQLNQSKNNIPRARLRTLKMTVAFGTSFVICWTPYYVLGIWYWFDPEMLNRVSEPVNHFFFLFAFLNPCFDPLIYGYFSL", "assay": "LHRH rat pituitary receptor binding", "method": "Representative compounds of the present invention were evaluated in vitro for potency against for LHRH rat pituitary receptor binding [pK, ]. Methods for the assay procedures are 10 described in […] al. J Med. Chem., 32: 2340-2344 (1989). Values of pK, are the negative logarithms of the equilibrium dissociation constant of the particular antagonist test compound for the receptor binding. […] Leuprolide LHRH agonist, disclosed and claimed in U.S. Pat. No. 4,005, 063, has the structure 5-oxo-[…].", "key": {"[1]": {"details": "Table 2: compounds of formula (VI), by isoquinolinyl moiety R"}, "[2]": {"details": "Table 1: compounds of formula (V), by n and R1"}}, "note": "Structures can show the parent of a compound that is named as a salt."}
{"smiles": "CC1c2cc(F)c(Cl)cc2CCN1CCCC(CCCNC(=O)CCc1ccc(F)cc1)(c1ccccc1)c1ccccc1", "note": "(stereo not drawn) [Example 57, 7-[N-3-(4-Fluorophenyl)propionyl]-1-[N-(1,2,3,4-tetrahydro-1-methyl-6-chloro-7-fluoroisoquinolinyl)1-4.4-diphenylheptane hydrochloride]", "values": [{"measurement": "pKI", "setting": "[1]", "result": 8.60}]}
{"smiles": "CC(=O)Oc1cc2c(cc1OC(C)=O)C(C)N(CCCC(CCCNC(=O)CCc1ccc(F)cc1)(c1ccccc1)c1ccccc1)CC2", "note": "(stereo not drawn) [Example 58, 7-[N-3-(4-Fluorophenyl)propionyl]-1-[N-(1,2,3,4-tetrahydro-1-methYI-6,7-diacetoxyisoquinolinyl)]-4,4-dilhenylheptane]", "values": [{"measurement": "Ki", "setting": "[1]", "result": 12.3, "unit": "nM"}]}
{"smiles": "COc1cc2c(cc1OC)C(CCCCNCC1CC1)N(CCCC(CCCNC(=O)CCc1ccc(F)cc1)(c1ccccc1)c1ccccc1)CC2", "note": "(stereo not drawn) [Example 27]", "values": [{"measurement": "pKI", "setting": "[2]", "result": 10.0}]}
{"smiles": "COc1ccc2c(c1)CCN(CCCC(CCCNC(=O)CCc1ccc(F)cc1)(c1ccccc1)c1ccccc1)C2C", "note": "(stereo not drawn) [Example 50, 7-[N-3-(4-Fluorophenyl)propionyl]amino-1-[-1-(1,2,3,4-tetrahydro-1-methv,l-6-methoxyisoquinolinyl)1-4.4-diphenylheptane hydrochloride]", "values": [{"measurement": "Ki", "setting": "[1]", "result": 2.51, "unit": "nM"}]}
{"smiles": "CC1c2cc(F)ccc2CCN1CCCC(CCCNC(=O)CCc1ccc(F)cc1)(c1ccccc1)c1ccccc1", "note": "(stereo not drawn) [Example 53, 7-[N-3-(4-Fluorophenyy)propionyl]-1-[N-(1,2,3,4-tetrahydro-1-methyl-7-fluoro-isoquinolinyl)l-4,4-diphenylheptane hydrochloride]", "values": [{"measurement": "Ki", "setting": "[1]", "result": 14.5, "unit": "nM"}]}
{"smiles": "CC1c2cc3c(cc2CCN1CCCC(CCCNC(=O)CCc1ccc(F)cc1)(c1ccccc1)c1ccccc1)OCCO3", "note": "(stereo not drawn) [Example 49, 7-[N-3-(4-Fluorophenyl)propionyl]amino-1-[N-(1,2,3,4-tetrahydro-1-methyl-6,7-dioxane-isoguinolinyl)1-4.4-diphenylheotane hydrochloride]", "values": [{"measurement": "pKI", "setting": "[1]", "result": 7.90}]}
{"smiles": "COc1cc2c(cc1OC)C(C1CC1)N(CCCC(CCCNC(=O)CCc1ccc(F)cc1)(c1ccccc1)c1ccccc1)CC2", "note": "(stereo not drawn) [Example 4, 7-[N-3-(4-Fluorolphenyl)Propionyl]1-[N-(1,2,3,4-tetrahydro-1-cyclopropyl-6.7-dimethoxyisoquinolinyl)]-4,4-diphenylheptane hydrochloride]", "values": [{"measurement": "Ki", "setting": "[2]", "result": 0.135, "unit": "nM"}]}
{"smiles": "CC1c2cc(Cl)c(Cl)cc2CCN1CCCC(CCCNC(=O)CCc1ccc(F)cc1)(c1ccccc1)c1ccccc1", "note": "(stereo not drawn) [Example 56, 7-[N-3-(4-Fluorophenyl)propionyl]-1-[N-(1,2,3,4-tetrahydro-1-methyl-6,7-dichloro-isoquinolinyl)1-4.4-diphenylheptane hydrochloride]", "values": [{"measurement": "Ki", "setting": "[1]", "result": 3.72, "unit": "nM"}]}
{"smiles": "COc1ccc2c(c1)C(C)N(CCCC(CCCNC(=O)CCc1ccc(F)cc1)(c1ccccc1)c1ccccc1)C(C)C2", "note": "(stereo not drawn) [Example 68, 7-[N-3-(4-Fluorophenyl)propionyl]-1-rN-(1,2,3,4-tetrahydro-1.3-dimethyl-7-methoxyisoquinolinyl)1-4.4-diphenylheiltane hydrochloride]", "values": [{"measurement": "Ki", "setting": "[1]", "result": 2.51, "unit": "nM"}]}
{"smiles": "CC1c2cc(Cl)ccc2CCN1CCCC(CCCNC(=O)CCc1ccc(F)cc1)(c1ccccc1)c1ccccc1", "note": "(stereo not drawn) [Example 52, 7-[N-3-(4-Fluorophenyl)propionyl]-1-[N-(1,2,3,4-tetrahydro-1-methyl-7-chloro-isoguinolinyl)-4,4-dithenylhepMtane hydrochloride]", "values": [{"measurement": "Ki", "setting": "[1]", "result": 3.55, "unit": "nM"}]}
{"smiles": "COc1cc2c(cc1OC)C([C@H]1CC[C@H](CNC(C)C)CC1)N(CCCC(CCCNC(=O)CCc1ccc(F)cc1)(c1ccccc1)c1ccccc1)CC2", "note": "(stereo partly drawn) [Example 38, 7-[N-3-(4-Fluorophenyl)propionyl]-1-[N-(1,2,3,4-tetrahydro-1-(4-N-(isopropylaminomethyl)cyclohexyl-6,7-dimethoxyisoquinolinyl)1-4.4-diphenylheptanedihydrochloride]", "values": [{"measurement": "Ki", "setting": "[2]", "result": 1.58, "unit": "nM"}]}
{"smiles": "COc1cc2c(cc1OC)C(Cc1ccc(Cl)cc1)N(CCCC(CCCNC(=O)CCc1ccc(F)cc1)(c1ccccc1)c1ccccc1)CC2", "note": "(stereo not drawn) [Example 18, 7-[N-3-(4-Fluorophenyl)propionyl]amino-1-[N-(1,2,3,4-tetrahydro-1-(4-chlorobenzyl)-6,7-dimethoxyisoguinolinyl)1-4.4-diphenylheptane hydrochloride]", "values": [{"measurement": "Ki", "setting": "[2]", "result": 38.9, "unit": "nM"}]}
{"smiles": "COc1cc2c(cc1OC)CN(CCCC(CCCNC(=O)CCc1ccc(F)cc1)(c1ccccc1)c1ccccc1)C(C)C2", "note": "(stereo not drawn) [Example 66, 7-[N-3-(4-Fluorophenyl)propionyl]-1-[N-(1,2,3,4-tetrahydro-3-mekyl-6,7-dimethoxyisoguinolinyl)]-4,4-diphenylheptane hydrochloride]", "values": [{"measurement": "Ki", "setting": "[1]", "result": 0.617, "unit": "nM"}]}
{"smiles": "COc1cc2c(cc1OC)C(C)(C)N(CCCC(CCCNC(=O)CCc1ccc(F)cc1)(c1ccccc1)c1ccccc1)CC2", "note": "[Example 67, 7-[N-3-(4-Fluorophenyl)propionyl]-1-[N-(1,2,3,4-tetrahydro-1.1-dimethyl-6,7-dimethoxyisoguinolinyl)1-4.4-diphenylheptane hydrochloride]", "values": [{"measurement": "Ki", "setting": "[1]", "result": 2.51, "unit": "nM"}]}
{"smiles": "COc1cc2c(cc1OC)[C@H](C)N(CCCC(CCCNC(=O)CCc1ccc(F)cc1)(c1ccccc1)c1ccccc1)CC2", "note": "[Example 3, (S) 7-[N-3-(4-Fluorophenyl)propionyl]amino-1-[N-(1,2,3,4-tetrahydro-1-methyl-6.7-dimethoxyisoquinolinyl]1-4.4-diphenylheptane hydrochloride]", "values": [{"measurement": "Ki", "setting": "[2]", "result": 100, "unit": "nM"}]}
